Laboratory results taken from ChEMBL document CHEMBL1132209, “Design, synthesis, and activity of 2,6-diphenoxypyridine-derived factor Xa inhibitors” (J Med Chem, 1999).

Key:
Coagulation factor X = Coagulation factor X (Homo sapiens, UniProt P00742); test: Compound was tested for inhibition activity against Coagulation factor X
Serine protease 1 = target: T1, Serine protease 1 (Bos taurus, UniProt P00760); test: Compound was tested for inhibition activity against bovine trypsin.
T1 sequence (P00760 whole entry): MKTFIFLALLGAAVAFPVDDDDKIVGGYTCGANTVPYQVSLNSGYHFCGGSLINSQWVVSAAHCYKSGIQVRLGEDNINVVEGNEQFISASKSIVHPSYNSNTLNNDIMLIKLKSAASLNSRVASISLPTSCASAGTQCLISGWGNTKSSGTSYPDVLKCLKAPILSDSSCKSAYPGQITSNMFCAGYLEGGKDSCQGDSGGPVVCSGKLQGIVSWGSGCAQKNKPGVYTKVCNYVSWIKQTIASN

Prothrombin = Prothrombin (Homo sapiens, UniProt P00734); test: Compound was tested for inhibition activity against human thrombin (FIIa)

Chain of Coagulation factor X (P00742 41-179 limits assumed): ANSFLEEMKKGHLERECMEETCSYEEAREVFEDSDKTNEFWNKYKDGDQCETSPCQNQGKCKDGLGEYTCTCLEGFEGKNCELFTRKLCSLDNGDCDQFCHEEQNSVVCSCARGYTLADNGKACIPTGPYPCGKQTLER
Chain of Coagulation factor X (P00742 235-488 limits assumed): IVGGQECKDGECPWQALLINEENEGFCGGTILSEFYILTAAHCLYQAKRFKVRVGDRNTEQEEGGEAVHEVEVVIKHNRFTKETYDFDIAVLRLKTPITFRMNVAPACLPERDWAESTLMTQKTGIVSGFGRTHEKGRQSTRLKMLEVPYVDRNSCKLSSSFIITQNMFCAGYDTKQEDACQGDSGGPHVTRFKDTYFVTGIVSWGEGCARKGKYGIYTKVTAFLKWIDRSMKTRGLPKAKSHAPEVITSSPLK

| SMILES | Ki (Coagulation factor X) [nM] | Ki (Serine protease 1) [nM] | Ki (Prothrombin) [nM] |
| --- | --- | --- | --- |
| N=C(N)c1cccc(Oc2ccc(NC(=O)c3ccccc3)c(Oc3cccc(C(=N)N)c3)n2)c1 | 120 | 260 | 3400 |
| N=C(N)c1cccc(Oc2cc(C(N)=O)cc(Oc3cccc(C(=N)N)c3)n2)c1 | 42 | 780 | 6000 |
| N=C(N)c1cccc(Oc2ccc(NC(=O)NCC(N)=O)c(Oc3cccc(C(=N)N)c3)n2)c1 | 110 | 280 | > 5000 |
| N=C(N)c1cccc(Oc2ccc(NC(=O)Nc3ccccc3)c(Oc3cccc(C(=N)N)c3)n2)c1 | 62 | 100 | 3400 |
| N=C(N)c1ccc(Oc2cccc(Oc3ccc(C(=N)N)cc3)c2)cc1 | 970 | 1000 | 4900 |
| N=C(N)c1ccc(/C=C2\CCCC/C(=C\c3ccc(C(=N)N)cc3)C2=O)cc1 | 0.66 | 33 | 530 |
| CNC(=O)c1cc(Oc2cccc(C(=N)N)c2)nc(Oc2cccc(C(=N)N)c2)c1 | 60 | 750 | 4200 |
| CS(=O)(=O)Nc1ccc(Oc2cccc(C(=N)N)c2)nc1Oc1cccc(C(=N)N)c1 | 130 | 1900 | > 5000 |
| N=C(N)c1ccc(Oc2cc(Oc3ccc(C(=N)N)cc3)c(Cl)cc2Cl)cc1 | 1100 | 1800 | 2500 |
| CCOC(=O)c1cc(Oc2cccc(C(=N)N)c2)nc(Oc2cccc(C(=N)N)c2)c1 | 34 | 800 | 11000 |
| COc1c(F)c(Oc2cccc(C(=N)N)c2)nc(Oc2cccc(C(=N)N)c2)c1F | 23 | 1100 | > 5000 |
| N=C(N)c1cccc(Oc2ccc(C(=O)NCC(N)=O)c(Oc3cccc(C(=N)N)c3)n2)c1 | 690 | 2000 | > 5000 |
| Cc1c(F)c(N(C)c2cccc(C(=N)N)c2)nc(N(C)c2cccc(C(=N)N)c2)c1F | 98 | 360 | 360 |
| N=C(N)c1cccc(Oc2ccc(C(F)(F)F)c(Oc3cccc(C(=N)N)c3)n2)c1 | 110 | 780 | > 5000 |
| Cc1c(F)c(Nc2cccc(C(=N)N)c2)nc(Oc2cccc(C(=N)N)c2)c1F | 660 | 3100 | > 5000 |
| N=C(N)c1cccc(Oc2c[nH]c(=O)c(Oc3cccc(C(=N)N)c3)n2)c1 | 190 | 760 | > 5000 |
| CNC(=O)Nc1ccc(Oc2cccc(C(=N)N)c2)nc1Oc1cccc(C(=N)N)c1 | 59 | 840 | > 5000 |
| Cc1c(F)c(Oc2cccc(C(=N)N)c2)nc(N(C)c2cccc(C(=N)N)c2)c1F | 12 | 690 | 1900 |
| CN(C)C(=O)c1ccc(Oc2cccc(C(=N)N)c2)nc1Oc1cccc(C(=N)N)c1 | 32 | 780 | > 5000 |

More lines, now with the values ahead:

| Ki (Coagulation factor X) [nM] | Ki (Serine protease 1) [nM] | Ki (Prothrombin) [nM] | SMILES |
| --- | --- | --- | --- |
| 230 | 1400 | > 5000 | CNC(=O)c1ccc(Oc2cccc(C(=N)N)c2)nc1Oc1cccc(C(=N)N)c1 |
| 120 | 760 | > 5000 | N=C(N)c1cccc(Oc2ccnc(Oc3cccc(C(=N)N)c3)n2)c1 |
| 51 | 970 | > 5000 | N=C(N)c1cccc(Oc2cncc(Oc3cccc(C(=N)N)c3)n2)c1 |
| 95 | 2200 | > 100000 | N=C(N)c1cccc(Oc2ccc(C(=O)O)c(Oc3cccc(C(=N)N)c3)n2)c1 |
| 53 | 1300 | > 5000 | N=C(N)c1cccc(Oc2ccc(N)c(Oc3cccc(C(=N)N)c3)n2)c1 |
| > 5000 |  |  | N=C(N)c1ccccc1Oc1cccc(Oc2ccccc2C(=N)N)n1 |
| 190 | 920 | > 5000 | CCOC(=O)c1ccc(Oc2cccc(C(=N)N)c2)nc1Oc1cccc(C(=N)N)c1 |
| 600 | 1200 | > 5000 | N=C(N)c1cccc(Oc2ccc(C(N)=O)c(Oc3cccc(C(=N)N)c3)n2)c1 |
| 52 | 1200 | > 5000 | CC(=O)Nc1ccc(Oc2cccc(C(=N)N)c2)nc1Oc1cccc(C(=N)N)c1 |
| 1100 |  |  | N=C(N)c1cccc(Oc2cc(Oc3ccccc3C(=N)N)ccc2N)c1 |
| 300 |  |  | N=C(N)c1cccc(Oc2cc(Oc3ccccc3C(=N)N)ccc2[N+](=O)[O-])c1 |
| 130 | 1900 | 1200 | N=C(N)c1ccc(Oc2cccc(Oc3ccccc3C(=N)N)n2)cc1 |
